Assay results as given in ChEMBL document CHEMBL1130277, “Three-dimensional quantitative structure-activity relationships from molecular similarity matrices and genetic neural networks. 2. Applications” (J Med Chem, 1997).
pIC50: −log10 of the molar value.

These molecules were tested on Leishmania amazonensis (assay: Inhibition on leishmania mexicana amazonensis.).
Assay type: functional, organism-based
`COc1cc(C2=NCCN2)ccc1OCCCCOc1ccc(C2=NCCN2)cc1OC` gave a pIC50 of 2.19. Work on `COc1cc(C2=NCCN2)ccc1OCCCOc1ccc(C2=NCCN2)cc1OC` yielded a pIC50 of 2.65. Molecule `c1cc(C2=NCCN2)ccc1OCCCCOc1ccc(C2=NCCN2)cc1` has a pIC50 of 2.57. For `N=C(N)c1ccc(NCCCCCNc2ccc(C(=N)N)cc2N)c(N)c1`, the pIC50 was 2.94. `N=C(N)c1ccc(NCCCCCCNc2ccc(C(=N)N)cc2N)c(N)c1` showed a pIC50 of 3.00. `N=C(N)c1ccc(OCCCCOc2ccc(C(=N)N)cc2Cl)c(Cl)c1` was tested, and the pIC50 was 2.88. Work on `N=C(N)c1ccc(OCCCCCOc2ccc(C(=N)N)cc2Cl)c(Cl)c1` yielded a pIC50 of 3.15. With `N=C(N)c1ccc(OCCCOc2ccc(C(=N)N)cc2N)c(N)c1` the pIC50 was 2.46. Molecule `N=C(N)c1ccc(NCCCNc2ccc(C(=N)N)cc2)cc1` has a pIC50 of 3.16. Work on `N=C(N)c1ccc(OCCCCCOc2ccc(C(=N)N)cc2[N+](=O)[O-])c([N+](=O)[O-])c1` yielded a pIC50 of 2.70. With `COc1cc(C(=N)N)ccc1OCCCOc1ccc(C(=N)N)cc1OC` the pIC50 was 2.75. `N=C(N)c1ccc(OCCCCCOc2ccc(C(=N)N)cc2Br)c(Br)c1` was tested, and the pIC50 was 3.17. In the case of `N=C(N)c1ccc(OCCCCOc2ccc(C(=N)N)cc2N)c(N)c1`, the pIC50 was 2.12. In the case of `c1cc(C2=NCCN2)ccc1OCCCCCOc1ccc(C2=NCCN2)cc1`, the pIC50 was 2.77. `N=C(N)c1ccc(NCCCCCNc2ccc(C(=N)N)cc2)cc1` gave a pIC50 of 3.25. In the case of `N=C(N)c1ccc(NCCNc2ccc(C(=N)N)cc2N)c(N)c1`, the pIC50 was 1.58. With `N=C(N)c1cccc(OCCCCOc2cccc(C(=N)N)c2)c1` the pIC50 was 2.27. `N=C(N)c1cccc(OCCCCCCOc2cccc(C(=N)N)c2)c1` was tested, and the pIC50 was 2.98. For `N=C(N)c1ccc(OCCCCOc2ccc(C(=N)N)cc2)cc1`, the pIC50 was 2.80. Molecule `N=C(N)c1ccc(NCCCCCNc2ccc(C(=N)N)cc2[N+](=O)[O-])c([N+](=O)[O-])c1` has a pIC50 of 2.95. `N=C(N)c1cccc(OCCCOc2cccc(C(=N)N)c2)c1` gave a pIC50 of 2.21. With `N=C(N)c1ccc(NCCCCNc2ccc(C(=N)N)cc2N)c(N)c1` the pIC50 was 2.10. For `N=C(N)c1ccc(OCCOc2ccc(C(=N)N)cc2N)c(N)c1`, the pIC50 was 1.65. In the case of `N=C(N)c1ccc(OCCOc2ccc(C(=N)N)cc2[N+](=O)[O-])c([N+](=O)[O-])c1`, the pIC50 was 1.30. With `N=C(N)c1ccc(OCCCCOc2ccc(C(=N)N)cc2[N+](=O)[O-])c([N+](=O)[O-])c1` the pIC50 was 2.25. Work on `c1cc(C2=NCCN2)ccc1OCCCOc1ccc(C2=NCCN2)cc1` yielded a pIC50 of 2.75. Molecule `N=C(N)c1ccc(OCCCCCCOc2ccc(C(=N)N)cc2)cc1` [HEXAMIDINE] has a pIC50 of 3.40. Work on `N=C(N)c1ccc(OCCCCCOc2ccc(C(=N)N)cc2)cc1` [PENTAMIDINE] yielded a pIC50 of 3.09. With `N=C(N)c1ccc(OCCCOc2ccc(C(=N)N)cc2)cc1` [PROPAMIDINE] the pIC50 was 3.07.
